What was measured:
[1] = test system: pancreatic cancer cells expressing IL-17RB; test: RT-qPCR of cytokine gene expression (CCL20, TFF1) after peptide pretreatment and rIL-17B; assay type: cell-based, human; settings: CFPAC1 and PDX-derived cells; peptide 50 ng/ml 30 mins, then rIL-17B 2 hrs
Text: (§1) FIGS. 7A to 7J include charts showing that disruption of the interaction between IL-17RB and MLK4 by the loop peptide blocks oncogenic progression. (FIG. 7A) Peptides TAT48-57 (Control) (SEQ ID NO: 21) and TAT-IL-17RB403-416 (Loop) (SEQ ID NO: 30) used for the following experiments. (FIG. 7B) Immunoblotting analysis of IL-17RB binding to MLK4 with Loop peptide treatment. 293T cells expressing Flag-MLK4 and HA-IL-17RB were pretreated with the control and loop peptides with different dose (0, 0.1, 1, 10, 50, 100 ng/ml) for 30 mins, and then added rIL-17B for 30 mins. […] CCL20 and TFF/mRNA expression of these cells were measured by RT-qPCR (n=3) (FIG. 7D), the same cells were for invasion assay (n=4) (FIG. 7E) and SACF assay (n=4) (FIG. 7F). […] (FIG. 7I) The experimental EKP mice (n=7 for each group) were euthanized at Day 56, and the metastatic tumor nodules in the lungs were counted. […]
(§2) FIGS. 19A to 19D include charts showing that treatment with the loop peptide suppresses aggressive behavior of patient-derived pancreatic tumor cells. […] (FIG. 19C and FIG. 19D) These cells were measured by RT-qPCR for the cytokine gene mRNA expression (n=3), or for Invasion assay (n=4) (FIG. 19C) and SACF assay (n=4) (FIG. 19D). […]

[2] = test system: pancreatic cancer cells expressing IL-17RB; test: Invasion assay after peptide treatment; assay type: cell-based, human; settings: CFPAC1 and PDX-derived cells treated with peptide
Text: as §1, §2

[3] = test system: transgenic pancreatic cancer EKP mice; test: Spontaneous pancreatic cancer model, EKP mice plus cerulein; assay type: in vivo, mouse; settings: for recruitment of MDSC and M2 macrophage: pancreatic tissues, flow cytometry
Text: FIGS. 7A to 7J include charts showing that disruption of the interaction between IL-17RB and MLK4 by the loop peptide blocks oncogenic progression. (FIG. 7A) Peptides TAT48-57 (Control) (SEQ ID NO: 21) and TAT-IL-17RB403-416 (Loop) (SEQ ID NO: 30) used for the following experiments. (FIG. 7B) Immunoblotting analysis of IL-17RB binding to MLK4 with Loop peptide treatment. 293T cells expressing Flag-MLK4 and HA-IL-17RB were pretreated with the control and loop peptides with different dose (0, 0.1, 1, 10, 50, 100 ng/ml) for 30 mins, and then added rIL-17B for 30 mins. The cell lysates were reciprocally co-immunoprecipitated with anti-Flag and anti-HA and blotted with the indicated antibodies or directly immunoblotted with the indicated antibodies as the input controls. (FIG. 7C to FIG. 7F) CFPAC1cells were pretreated with the peptides for 30 mins and then added rIL-17B for 30 mins. The cell lysates were immunoblotted with the indicated antibodies or immunoprecipitated with anti-IL-17RB or control IgG and blotted with the indicated antibodies (FIG. 7C). CFPAC1 cells were pretreated with TAT48-57 or TAT-IL-17RB403-416 (50 ng/ml) 30 mins and then added rIL-17B for two hrs. CCL20 and TFF/mRNA expression of these cells were measured by RT-qPCR (n=3) (FIG. 7D), the same cells were for invasion assay (n=4) (FIG. 7E) and SACF assay (n=4) (FIG. 7F). (FIG. 7G) The scheme of the treatment of transgenic pancreatic cancer EKP mice (LSL-Kras^+/G12D; p53^+/−; Ela-Cre^ERT; plus cerulein) with the Loop peptides. (FIG. 7H) IHC images of pancreases stained with anti-P-Y447 antibody. Scale bars: 50 μm. The pancreas tissues were from EKP mice after treated with the control or loop peptides at Day 42. The Kras^+/+ mice (Kras^+/+; p53^+/−; Ela-Cre^ERT; plus cerulein) were used as the non-cancerous control. Boxes indicate the enlarged areas. (FIG. 7I) The experimental EKP mice (n=7 for each group) were euthanized at Day 56, and the metastatic tumor nodules in the lungs were counted. (FIG. 7J) Kaplan-Meier survival curve plot of the lifespans of the experimental EKP mice (n=7 for each group). Log-rank test was used.
FIGS. 20A to 20D include charts showing that treatment of TAT-IL-17RB403-416 peptide reduces the recruitment of MDSC and M2 macrophage. (FIG. 20A) Pancreatic tissues of EKP mice (LSL-Kras+/G12D; p53+/−; Ela-Cre^ERT; plus cerulein) (n=7 for each group) treated with TAT-IL-17RB403-416 (Loop) peptides were examined the tumor-immune modulating capacity by flow cytometry with specific cell surface markers as indicated. […] Data are mean±s.d. *P<0.05, **P<0.01 by two-tailed Student's t-test.
Formalin-fixed paraffin-embedded primary tumor tissue sections were used for IHC. Heat-induced antigen retrieval was performed using 0.1M citrate buffer, pH 6.0 and autoclaved for 20 mins. Endogenous peroxidase was eliminated with 3% H2O2. Slides were stained with an in-house-generated anti-IL-17RB antibody (A81, 1:2000) and anti-P-Y447 (1:500), respectively in PBS/10% FBS overnight at 4° C. After washing, slides were incubated with anti-rabbit/mouse HRP polymer before visualization with liquid diaminobenzidine tetrahydrochloride plus substrate DAB chromogen from Dako REAL EnVision (Carpinteria, CA). All slides were counterstained with hematoxylin.
Tumors were excised, weighed and measured. Approximately half of each dissected tumor was fixed in formalin for histopathologic analysis. The remaining tumor sections were placed in PBS with 1% (v/v) FBS and mechanically minced. […]

RKKRRQRRRVCDGTCGKSEGSPS (IL-17RB inhibitory peptide, fusion protein) [loop peptide]
cytokine gene expression (CCL20, TFF1 mRNA) [1]: diminished
invasion ability [2]: diminished
lung metastasis nodule formation ([3]; EKP mice euthanized at day 56): suppressed
expression of P-Y447 IL-17RB in pancreatic tissues (IHC) ([3]; EKP mice, Day 42): diminished
recruitment of MDSC and M2 macrophage ([3]; EKP mice): reduced
recruitment of MDSC and M2 macrophage ([3]; EKP mice, listed as TAT-IL-17RB403-416): reduces
lifespan (Kaplan-Meier survival) ([3]; EKP mice, second treatment protocol): significantly prolonged

Source: patent US20240124528A1, “ANTAGONIST OF INTERLEUKIN-17B RECEPTOR (IL-17RB) AND USE THEREOF” (Academia Sinica, priority 2020, published 2024)
